Test results published in patent US20110212909A1, “Use of Ginsenoside Compound K in the Preparation of a Medicament for the Prevention and Treatment of Atherosclerosis” (priority 2008, published 2011).

Key:
Kunming mice = experiment: Primary survey for toxicity in mice (gavage, 14 days); type: in vivo
Description: 40 Kunming mice (weight 18-22 g) were randomly divided into blank group of 20 mice, and ginsenoside compound K group of 20 mice, wherein male and female mice were fifty-fifty in each group. Fasting was carried out before trial for 16 h, allowing mice to freely drink water. Each mouse in drug group was gavaged with ginsenoside compound K (bought from) suspension according to a dose of 400 mg/kg, and blank group was gavaged equivalent amount of distilled water, with administration carried out once a day. Observation was carried out for 14 days after administration, wherein mice were weighted and animal responses were observed each day. The mice were weighted on fourteenth day of the trial, then were sacrificed and dissected, and tissue change of mice's major organs such as heart, liver, spleen, lung, and kidney were observed.
There was no phenomena such as abnormal crying, tremor, convulsion, dyskinesias, salivation, lacrimation, nose running, respiration difficulty, rapid heartbeat or slow heartbeat, diarrhea, constipation, intestinal tympanites in drug group mice; mice's hair was glossy; No mouse died in 14 days of administration.

CD36 mRNA = experiment: Real-time quantitative PCR of CD36 mRNA in foam cells; type: cell-based; settings: 25 μM, rat foam cells
Description: FIG. 1 provides effects of a ginsenoside compound K (C-K, 25 μM) and pyrrolidine dithiocarbamate (PDTC, 25 μM) on the foam cell CD36 mRNA expression. a: P<0.05, vs foam cell group; b: P<0.05, vs PDTC. PDTC (25 μM) C-K (25 μM) (n=5).
(1) Material and reagents (the same as Example 2).
(§1) (2) real-time quantitative PCR analysis (a reference method: Zhang Yiguan, Li Xiaohui, Fan Jishan, Zhang Haigang, Li Shuhui, Liao Wenqiang, Pang Yan, Jia Yi. Total panax notoginsenosides suppress atherosclerosis formation in rats by means of antiinflammatory and blood fat regulating action. Progress in Modern Biomedicine. 2007, 27(11): 1601-1607).
(§2) Data was expressed as x±s, variance analysis were carried out between groups by SPSS 13.0 software.

perilipin mRNA = experiment: Real-time quantitative PCR of perilipin mRNA in foam cells; type: cell-based; settings: 25 μM, rat foam cells
Description: FIG. 2 provides effects of a ginsenoside compound K (C-K, 25 μM) and pyrrolidine dithiocarbamate (PDTC, 25 μM) on the foam cell perilipin mRNA expression.
a: P<0.05, vs. foam cells group. PDTC (25 μM) C-K (25 μM) (n=5).
(§3) (1) Material and reagents (the same as Examples 2).
as §1, with “27 (11):” for “27(11):”
as §2

perilipin protein = experiment: Protein expression of perilipin in foam cells; type: cell-based; settings: 25 μM, rat foam cells
Description: FIG. 3 provides effects of a ginsenoside compound K (C-K, 25 μM) and pyrrolidine dithiocarbamate (PDTC, 25 μM) on the protein expression of perilipin in foam cell. a: P<0.01, vs foam cell group PDTC (25 μM) C-K (25 μM) (n=5).
as §3, §2

ABCA1 mRNA = experiment: Real-time quantitative PCR of ABCA1 mRNA in foam cells; type: cell-based; settings: 25 μM, rat foam cells
Description: FIG. 4 provides effects of a ginsenoside compound K (C-K, 25 μM) and pyrrolidine dithiocarbamate (PDTC, 25 μM) on the foam cell ABCA1 mRNA expression. a: P<0.05, vs foam cell group. PDTC (25 μM) C-K (25 μM) (n=5).
as §3
as §1, with “27 (11):” for “27(11):”
as §2

LXRα mRNA = experiment: Real-time quantitative PCR of LXRα mRNA in foam cells; type: cell-based; settings: 25 μM, rat foam cells
Description: FIG. 5 provides effects of a ginsenoside compound K (C-K, 25 μM) and pyrrolidine dithiocarbamate (PDTC, 25 μM) on the foam cell LXRα mRNA expression. a: P<0.05, vs foam cell group. PDTC (25 μM) C-K (25 μM) (n=5).
as §3
as §1, with “27 (11):” for “27(11):”
as §2

For CC(C)=CCC[C@](C)(OC1OC(CO)C(O)C(O)C1O)C1CC[C@]2(C)C1[C@H](O)CC1[C@@]3(C)CC[C@H](O)C(C)(C)C3CC[C@]12C (stereo partly drawn) [C-K, 20-O-β-D-glucopyranosyl 20-(S)-protopanaxadiol], the “mice's response to acute toxicity” value (Kunming mice; Kunming mice, 400 mg/kg gavage) was “not obvious”, the “time until signs after gavage (eye closed, lying down, reduced autonomic activities, appetite descent) restored normal” value (Kunming mice; Kunming mice, 400 mg/kg gavage) was ≤ 2 h and the “death of mice in 14 days of administration” value (Kunming mice; Kunming mice, 400 mg/kg gavage once a day, 14 days) was “No mouse died”. For the same compound, the “organs observed by naked eye after dissection” value (Kunming mice; mouse, in vivo, 400 mg/kg) was “no abnormality in each organ”, the “change of CD36 mRNA expression in foam cells compared with model group” value (CD36 mRNA) was “not obvious” and the “expression of perilipin mRNA in foam cells compared with model group” value (perilipin mRNA) was “significantly down-regulated”. The “expression of perilipin proteins in foam cells compared with model group” value (perilipin protein) was “significantly down-regulated”, the “expression of ABCA1 mRNA in foam cells compared with model group” value (ABCA1 mRNA) was “significantly up-regulated” and the “expression of LXRα mRNA in foam cells compared with model group” value (LXRα mRNA) was “significantly up-regulated”.
